Experimental data taken from US9695155B2, “Herbicidal substituted pyrimidinyloxy benzene compounds” (E. I. DU PONT DE NEMOURS AND COMPANY, priority 2013, dated 2017).

Legend:
galium = test: Test A postemergence; type: in vivo, Galium aparine
Procedure, shortened: (§1)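 Compounds in non-phytotoxic solvent with surfactant applied as soil spray preemergence, or postemergence to plants 2-10 cm at one- to two-leaf stage, in loam/sand. After approximately 10 days in greenhouse, injury rated visually versus untreated controls, 0 (no effect) to 100 (complete control).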

Italian ryegrass = test: Test A preemergence; type: in vivo, Lolium multiflorum
Procedure, shortened: as §1

ragweed [1] = test: Test A preemergence; type: in vivo, Ambrosia elatior
Procedure, shortened: as §1

ragweed [2] = test: Test A postemergence; type: in vivo, Ambrosia elatior
Procedure, shortened: as §1

kochia [3] = test: Test A preemergence; type: in vivo, Kochia scoparia
Procedure, shortened: as §1

kochia [4] = test: Test A postemergence; type: in vivo, Kochia scoparia
Procedure, shortened: as §1

[5] = 125 g ai/ha, 0 to 100 scale where 0 is no effect and 100 is complete control
[6] = 500 g ai/ha, 0 to 100 scale where 0 is no effect and 100 is complete control
[7] = 1000 g ai/ha, 0 to 100 scale, 0 no effect, 100 complete control
[8] = 1000 g ai/ha, 0 to 100 scale, 0 no effect, 100 complete control, approx. 10 days
[9] = 31 g ai/ha, 0 to 100 scale, 0 no effect, 100 complete control
[10] = 31 g ai/ha, 0 to 100 scale where 0 is no effect and 100 is complete control, visual, approximately 10 days
[11] = 125 g ai/ha, 0 to 100 scale, 0 no effect, 100 complete control

SMILES	Plant response rating, Ryegrass, Italian (Italian ryegrass; [5])	Plant response rating, Ragweed (ragweed [1]; [5])	Plant response rating, Kochia (kochia [3]; [5])	Plant response rating, Galium (galium; [7])	Ryegrass, Italian plant response rating (Italian ryegrass; [8])	Ragweed plant response rating (ragweed [1]; [8])	Plant response rating, Ragweed (ragweed [2]; [7])	Kochia plant response rating (kochia [3]; [8])	Plant response rating, Kochia (kochia [4]; [7])	Plant response rating, Galium (galium; [9])	Galium plant response rating (galium; [5])	Plant response rating, Ryegrass, Italian (Italian ryegrass; [10])	Plant response rating, Ragweed (ragweed [1]; [10])	Plant response rating, Ragweed (ragweed [2]; [9])	Ragweed plant response rating (ragweed [2]; [5])	Plant response rating, Kochia (kochia [3]; [10])	Plant response rating, Kochia (kochia [4]; [9])	Kochia plant response rating (kochia [4]; [5])	also measured
Clc1cnc(Oc2cccc(Br)c2-n2cc(I)nn2)nc1 [Compound 117]	20	20	70	–	–	–	–	–	–	–	–	–	–	–	–	–	–	–	Plant response rating, Galium (galium; [5]): 100; Plant response rating, Galium (galium; [6]): 100; Ryegrass, Italian plant response rating (Italian ryegrass; [6]): 30; Ragweed plant response rating (ragweed [1]; [6]): 60; Plant response rating, Ragweed (ragweed [2]; [6]): 100; Kochia plant response rating (kochia [3]; [6]): 100; Plant response rating, Kochia (kochia [4]; [5]): 100; Plant response rating, Kochia (kochia [4]; [6]): 100
FCc1cn(-c2ccccc2Oc2ncc(Cl)cn2)nn1 [Compound 123]	–	–	–	100	70	90	100	100	100	–	–	–	–	–	–	–	–	–	–
N#Cc1cnn(-c2c(Br)cccc2Oc2ncc(Cl)cn2)c1 [Compound 140]	0	70	100	–	–	–	–	–	–	80	90	0	30	60	70	60	90	100	–
FCc1cccc(Oc2ncc(F)cn2)c1-n1cc(I)cn1 [Compound 152]	0	40	90	–	–	–	–	–	–	90	90	0	20	20	20	20	20	80	–
Clc1cnc(Oc2ccccc2-n2cc(C3CC3)nn2)nc1 [Compound 160, 5-chloro-2-[2-(4-cyclopropyl-1H-1,2,3-triazol-1-yl)phenoxy]pyrimidine]	–	–	–	100	90	100	100	100	100	–	–	–	–	–	–	–	–	–	–
FCc1cccc(Oc2ncc(Cl)cn2)c1-n1cc(I)cn1 [Compound 245]	–	–	–	–	–	–	–	–	–	100	–	0	0	0	–	0	60	–	Plant response rating, Galium (galium; [11]): 100; Ryegrass, Italian plant response rating (0 to 100 scale) (Italian ryegrass; 125 g ai/ha): 0; Ragweed plant response rating (0 to 100 scale) (ragweed [1]; 125 g ai/ha): 0; Plant response rating, Ragweed (ragweed [2]; [11]): 20; Kochia plant response rating (0 to 100 scale) (kochia [3]; 125 g ai/ha): 30; Plant response rating, Kochia (kochia [4]; [11]): 100
